Source: patent US20120328530A1, “TOLUIDINE BLUE DERIVATIVES AS PHOTOSENSITISING COMPOUNDS” (PHARMALUCIA LIMITED, priority 2010, published 2012)

Key:
Type in all cases: cell-based
[1] = test system: Staphylococcus aureus (NCTC 6571); assay: Photobactericidal efficacy, minimum bactericidal concentration; settings: NCTC6571, 10^6 cfu/ml, 1 hour at 37° C. with photosensitiser, illuminated twenty minutes, LEDs 660 nm, 6.2 J cm^-2, table does not say light or dark, read-out: minimum concentration needed to achieve the antibacterial activity (minimum bactericidal concentration), S. aureus
Procedure: (§1) The photobactericidal efficacies of the compounds of examples 2a to 2d in addition to that of the known photosensitiser methylene blue were measured against both Gram positive Staphylococcus aureus (NCTC 6571), Enterococcus faecalis (NCIMB 13280) and Propionibacterium acnes (NCTC 737) and Gram negative Escherichia coli (NCTC 10418), Proteus mirabilis (NCIMB 5887) and a clinical strain of Pseudomonas aeruginosa bacteria. Propionibacterium acnes was grown in reinforced clostridial medium. All other strains were grown in Mueller-Hinton Broth and then diluted to a concentration of 10^6 colony-forming units/ml. Aliquots of the strains were then incubated for 1 hour at 37° C. in microtitre trays with various concentrations of photosensitiser in doubling dilutions from 100 μM, with zero photosensitiser concentrations in each case for control purposes. The trays were then either illuminated for twenty minutes using an array of light-emitting diodes (660 nm) giving a light dose of 6.2 J cm^−2 or alternatively foil-covered to provide dark controls. From each well showing an inhibition of growth of the micro-organism, 1 μl was sub-cultured on nutrient agar, using the Miles-Misra method, and incubated for 18 hours at 37° C. The minimum bactericidal concentrations were then determined as the lowest concentration for each photosensitiser giving no bacterial growth.

[2] = test system: Proteus mirabilis (NCIMB 5887); assay: as above; settings: 10^6 cfu/ml, 1 hour at 37° C. with photosensitiser, illuminated twenty minutes, LEDs 660 nm, 6.2 J cm^-2; table does not say light or dark
Procedure: as §1

[3] = test system: Enterococcus faecalis (NCIMB 13280); assay: as above; settings: 10^6 cfu/ml, 1 hour at 37° C. with photosensitiser, illuminated twenty minutes, LEDs 660 nm, 6.2 J cm^-2; table does not say light or dark
Procedure: as §1

[4] = test system: Escherichia coli (NCTC 10418); assay: as above; settings: NCTC10418, 10^6 cfu/ml, 1 hour at 37° C. with photosensitiser, illuminated twenty minutes, LEDs 660 nm, 6.2 J cm^-2, table does not say light or dark, read-out: minimum concentration needed to achieve the antibacterial activity (minimum bactericidal concentration), E. coli
Procedure: as §1

[5] = test system: Propionibacterium acnes (NCTC 737); assay: as above; settings: Cutibacterium acnes, NCTC737; reinforced clostridial medium, 1 hour at 37° C. with photosensitiser, illuminated twenty minutes, LEDs 660 nm, 6.2 J cm^-2; table does not say light or dark; read-out: minimum concentration needed to achieve the antibacterial activity (minimum bactericidal concentration), Prop. acnes
Procedure: as §1

[6] = test system: clinical strain of Pseudomonas aeruginosa; assay: as above; settings: 10^6 cfu/ml, 1 hour at 37° C. with photosensitiser, illuminated twenty minutes, LEDs 660 nm, 6.2 J cm^-2, table does not say light or dark
Procedure: as §1

[7] = test system: Candida albicans (NCPF 8179); assay: Antifungal screening, minimum concentration; settings: Sabouraud broth and agar, carried out similarly: illuminated twenty minutes, LEDs 660 nm, 6.2 J cm^-2; table does not say light or dark
Procedure: as §1
Antifungal screening was carried out similarly against the yeast Candida albicans (NCPF 8179), using Sabouraud broth and agar.

## CCc1cc2nc3ccc(N(C)C)cc3[s+]c2cc1N [Compound 2a]
[1]
  MBC: 3.13 µM
[2]
  minimum concentration needed to achieve the antibacterial activity (minimum bactericidal concentration), Proteus mirabilis: 5.50 µM
[3]
  minimum concentration needed to achieve the antibacterial activity (minimum bactericidal concentration), Enterococcus facecalis: 1.35 µM
[4]
  MBC: 1.47 µM
[5]
  MBC: 0.78 µM
[6]
  minimum concentration needed to achieve the antibacterial activity (minimum bactericidal concentration), Pseudomonas Aeruginosa: 3.13 µM
[7]
  minimum concentration needed to achieve the antifungal activity, Candida albicans: 3.13 µmol/L

## CCCc1cc2nc3ccc(N(C)C)cc3[s+]c2cc1N [Compound 2b, 3-Amino-7-(dimethylamino)-2-n-propylphenothiazinium hydrogensulphate]
[1]
  MBC: 3.13 µM
[2]
  minimum concentration needed to achieve the antibacterial activity (minimum bactericidal concentration), Proteus mirabilis: 5.32 µM
[3]
  minimum concentration needed to achieve the antibacterial activity (minimum bactericidal concentration), Enterococcus facecalis: 0.33 µM
[4]
  MBC: 1.32 µM
[5]
  MBC: 0.78 µM
[6]
  minimum concentration needed to achieve the antibacterial activity (minimum bactericidal concentration), Pseudomonas Aeruginosa: 0.78 µM
[7]
  minimum concentration needed to achieve the antifungal activity, Candida albicans: 0.78 µmol/L

## CN(C)c1ccc2nc3cc(C(C)(C)C)c(N)cc3[s+]c2c1 [Compound 2c, 3-Amino-2-tert-butyl-7-(dimethylamino)phenothiazinium hydrogensulphate]
[1]
  MBC: 3.13 µM
[4]
  MBC: 3.13 µM
[5]
  MBC: 0.78 µM
[6]
  minimum concentration needed to achieve the antibacterial activity (minimum bactericidal concentration), Pseudomonas Aeruginosa: 0.39 µM
[7]
  minimum concentration needed to achieve the antifungal activity, Candida albicans: 3.13 µmol/L

## CN(C)c1ccc2nc3cc(-c4ccccc4)c(N)cc3[s+]c2c1 [Compound 2d, 3-Amino-7-(dimethylamino)-2-phenylphenothiazinium hydrogensulphate]
[1]
  MBC: 3.13 µM
[4]
  MBC: 3.13 µM
[7]
  minimum concentration needed to achieve the antifungal activity, Candida albicans: 0.78 µmol/L

## Cc1cc2c(cc1N)=[SH]c1cc(N(C)C)ccc1N=2 [toluidine blue, Toluidine blue]
[2]
  minimum concentration needed to achieve the antibacterial activity (minimum bactericidal concentration), Proteus mirabilis: 14.71 µM
[3]
  minimum concentration needed to achieve the antibacterial activity (minimum bactericidal concentration), Enterococcus facecalis: 7.36 µM
[6]
  minimum concentration needed to achieve the antibacterial activity (minimum bactericidal concentration), Pseudomonas Aeruginosa: 7.36 µM
[7]
  minimum concentration needed to achieve the antifungal activity, Candida albicans: 12.5 µmol/L
